pEC50, pIC50: −log10 of the molar value. Read-outs that look alike come from different tables or passages of the source.

One data set deals with SARS-CoV-2. The data set can be described thus: SARS-CoV-2/Hela-ACE Test. Format: cell-based. Conditions: for pEC50: Severe acute respiratory syndrome coronavirus 2, Hela-ACE cells infected with SARS-CoV-2 (USA-WA1/2020), MOI 0.75-1, 48 hours, read-out: Hela ACE2-CoV-2 EC50.
A short description of data set [1]: Toxicity Testing in Uninfected Cells. Format: cell-based. The conditions noted are these: human, Cell-Titer Glo cell viability. The protocol: Toxicity Testing in Uninfected Cells
The compound was transferred to a 1536-well plate (Corning No. 9006BC), and then Hela-ACE cells were added (cell density: 600 cells/5 microliter of medium MEM with 2% FBS). After the assay plate was incubated at 37°C in 5% CO2 for 48 hours, cell viability was tested. 2 µL of 50% Cell-Titer Glo (Promega No G7573) was diluted in water and added to a cell assay plate, and then a value on EnVision Plate Reader (Perkin Elmer) was read.

Another data set concerns the target SARS-CoV-2 3CLpro (Severe acute respiratory syndrome coronavirus 2, UniProt P0DTD1). The data set can be described thus: Enzyme Activity Test. It counts as biochemical.
[2] abbreviates: uninfected Hela-ACE (HeLa ACE2) cells.

For orientation: pEC50 means the EC50 on a negative log10 scale, so that one unit is a factor of ten. By CC50 is commonly meant the concentration at which the toxic effect on the cells reaches its halfway point. A high value points to better tolerance by the cells. For `O=C1CCN(c2cc(Cl)cc(OCC(F)(F)F)c2)C(=O)N1c1cncc2ccccc12` [Example 2], in the data set with SARS-CoV-2, the pEC50 was 7.52. In addition, in data set [1] (setting [2]), the CC50 at 48 h is over 99000 nM. Taken in the same sequence, the figures for `O=C1CCN(c2cc(Cl)cc(OCC3CC3)c2)C(=O)N1c1cncc2ccccc12` [Example 3] were 7.19 and 73400 nM. `O=C1CCN(c2cc(Cl)cc(OCC3CC(F)(F)C3)c2)C(=O)N1c1cncc2ccccc12` [Example 5]: the pEC50 in the data set on SARS-CoV-2 was 7.13. Moreover, in data set [1] (setting [2]), the CC50 at 48 h is over 99000 nM. Consider `O=C1CCN(c2cc(Cl)cc(N3CC4(COC4)C3)c2)C(=O)N1c1cncc2ccccc12` [Example 23], for which the negative logarithm of the EC50 (pEC50) in the data set on SARS-CoV-2 was 7.46. For the same compound, the 50% cytotoxic concentration (CC50) at 48 h in data set [1] (setting [2]) is over 99000 nM. `O=C1N(c2cc(Cl)cc(OCC(F)(F)F)c2)CC2(CC2)C(=O)N1c1cncc2ccccc12` [Example 33]: the negative-log EC50 (pEC50) in the data set on SARS-CoV-2 was 7.06. The same compound showed a half-maximal cytotoxic concentration (CC50) at 48 h in data set [1] (setting [2]) of over 99000 nM.

By pIC50 is commonly meant the IC50 on a negative log10 scale, so that one unit is a factor of ten. For the compound `Cc1cncc(N2C(=O)CCN(c3cc(Cl)cc(OCC(F)(F)F)c3)C2=O)c1C` [Example 47], on SARS-CoV-2 3CLpro, the pIC50 is 7.26. As usually defined, the EC50 is the concentration needed to bring the measured effect to its halfway point. As to `Cc1ccc2cncc(N3C(=O)CCN(c4cc(Cl)cc(OCC(F)(F)F)c4)C3=O)c2c1` [Example 48], in the data set with SARS-CoV-2 (Severe acute respiratory syndrome coronavirus 2, HeLa, 48 h, read-out: Hela ACE2-CoV-2 EC50 (µM)), the concentration for a half-maximal effect (EC50) worked out at 0.052 µM. This compound also returned a CC50 at 48 h in data set [1] (hela-ace2 cells, uninfected Hela-ACE cells) of over 99000 nM. Moreover, at SARS-CoV-2 3CLpro, the pIC50 was 7.30. For the compound `O=C1CCN(c2cc(Cl)cc(OCC(F)(F)F)c2)C(=O)N1c1cncc2ccc(F)cc12` [Example 49], the pIC50 at SARS-CoV-2 3CLpro was 7.37.

Take `O=C1CCN(c2cc(F)c(Cl)c(OCC(F)(F)F)c2)C(=O)N1c1cncc2ccccc12` [Example 55]: the negative logarithm of the EC50 (pEC50) in the data set on SARS-CoV-2 is 7.14. In data set [1] (setting [2]), this compound returned a CC50 at 48 h of 74000 nM.

Source of the values: patent EP4775569A1, “3CL PROTEASE INHIBITOR FOR TREATING OR PREVENTING CORONAVIRUS INFECTIONS AND USE THEREOF” (The Global Health Drug Discovery Institute, priority 2023, dated 2025).
